Measured values published in the NIST ThermoML archive (doi:10.1007/s10765-011-0978-y).
Numbers after ± are expanded uncertainties.

Conditions: Fluid (supercritical or subcritical phases), Falling or rolling sphere viscometry

FCC(F)(F)F [1,1,1,2-tetrafluoroethane]
viscosity [mPa·s]
Conditions	10000 kPa	25000 kPa	50000 kPa	100000 kPa	150000 kPa	200000 kPa	250000 kPa	300000 kPa	350000 kPa	400000 kPa
293.15 K	0.255 ± 0.0088	0.3008 ± 0.01	0.3631 ± 0.012	0.5045 ± 0.016	0.6605 ± 0.021	0.8252 ± 0.026	–	–	–	–
298.15 K	0.2368 ± 0.0079	0.2795 ± 0.0092	0.3435 ± 0.011	0.4988 ± 0.016	0.6459 ± 0.02	0.819 ± 0.026	0.9773 ± 0.03	–	–	–
313.15 K	0.207 ± 0.0071	0.2461 ± 0.0082	0.3127 ± 0.01	0.4302 ± 0.014	0.5758 ± 0.018	0.7155 ± 0.023	0.8952 ± 0.028	1.069 ± 0.035	1.25 ± 0.039	1.446 ± 0.045
323.15 K	0.1805 ± 0.0063	0.2229 ± 0.0075	0.2852 ± 0.0092	0.3946 ± 0.013	0.502 ± 0.016	0.6252 ± 0.02	0.7651 ± 0.024	0.914 ± 0.029	–	–
348.15 K	0.1405 ± 0.0051	0.1783 ± 0.006	0.2343 ± 0.0076	0.3327 ± 0.011	0.43 ± 0.013	0.5368 ± 0.017	0.6421 ± 0.02	0.7647 ± 0.024	0.8894 ± 0.028	1.04 ± 0.033
373.15 K	–	0.1531 ± 0.0052	0.2038 ± 0.0066	0.2931 ± 0.0093	0.3764 ± 0.012	0.4649 ± 0.015	0.5564 ± 0.017	0.6468 ± 0.02	0.7557 ± 0.024	0.8715 ± 0.027
398.15 K	–	–	0.1725 ± 0.0056	0.2544 ± 0.008	0.3243 ± 0.01	–	–	–	–	–
438.15 K	–	–	0.1458 ± 0.0047	0.2131 ± 0.0068	0.2789 ± 0.0087	0.3408 ± 0.011	0.3977 ± 0.012	0.4612 ± 0.014	–	–
